Test results taken from PubChem BioAssay AID1963979 (Molecular Pharmacology Branch, DTP, NCI, 2024).

Test system: 361931-004-R-J1-PDC multicell spheroid viability
Assay: Anticancer human tumor 361931-004-R-J1-PDC patient-derived colon adenocarcinoma cell line growth inhibition [PI3K]
Conditions: for IC50: curve of first compound; for viability, T/C: stronger effect = lower value
Method in brief: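 Combination activity was assessed by viability in multicellular tumor spheroids carrying HUVEC and MSC components. Agents were tested with PI3K inhibitors from a Cmax-based top dose (or 10 microM) downward in half-log increments.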
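Note: spheroids exposed to agents for seven days before readout.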

For `CCN1CCN(Cc2ccc(Nc3ncc(F)c(-c4cc(F)c5nc(C)n(C(C)C)c5c4)n3)nc2)CC1` + Cc1nc(NC(=O)N2CCCC2C(N)=O)sc1-c1ccnc(C(C)(C)C(F)(F)F)c1, the IC50 (second compound 0.0316 µM) was > 1 µM, the IC50 (second compound 0.1 µM) was > 1 µM and the IC50 (second compound 0.316 µM) was > 1 µM. For the same molecule, the IC50 (second compound 1 µM) was 0.605 µM, the IC50 (second compound 3.16 µM) was 0.111 µM and the IC50 (second compound 10 µM) was 0.0189 µM. For the same molecule, the viability, T/C (second compound 0.0316 µM, first compound 0.00316 µM) was 91.8%, the viability, T/C (second compound 0.0316 µM, first compound 0.01 µM) was 99.3% and the viability, T/C (second compound 0.0316 µM, first compound 0.0316 µM) was 99.5%. For the same molecule, the viability, T/C (second compound 0.0316 µM, first compound 0.1 µM) was 93.8%, the viability, T/C (second compound 0.0316 µM, first compound 0.316 µM) was 79.7% and the viability, T/C (second compound 0.0316 µM, first compound 1 µM) was 82.1%. The viability, T/C (second compound 0.1 µM, first compound 0.00316 µM) was 99.6%, the viability, T/C (second compound 0.1 µM, first compound 0.01 µM) was 97.2% and the viability, T/C (second compound 0.1 µM, first compound 0.0316 µM) was 96.6%. For the same molecule, the viability, T/C (second compound 0.1 µM, first compound 0.1 µM) was 82.6%, the viability, T/C (second compound 0.1 µM, first compound 0.316 µM) was 81.7% and the viability, T/C (second compound 0.1 µM, first compound 1 µM) was 57.4%. For the same molecule, the viability, T/C (second compound 0.316 µM, first compound 0.00316 µM) was 97.9%, the viability, T/C (second compound 0.316 µM, first compound 0.01 µM) was 90.2% and the viability, T/C (second compound 0.316 µM, first compound 0.0316 µM) was 83.8%. It also gave a viability, T/C (second compound 0.316 µM, first compound 0.1 µM) of 72.6%, a viability, T/C (second compound 0.316 µM, first compound 0.316 µM) of 69.5% and a viability, T/C (second compound 0.316 µM, first compound 1 µM) of 56.4%. For the same molecule, the viability, T/C (second compound 1 µM, first compound 0.00316 µM) was 95.2%, the viability, T/C (second compound 1 µM, first compound 0.01 µM) was 87.7% and the viability, T/C (second compound 1 µM, first compound 0.0316 µM) was 75.2%. It also gave a viability, T/C (second compound 1 µM, first compound 0.1 µM) of 74.3%, a viability, T/C (second compound 1 µM, first compound 0.316 µM) of 65.2% and a viability, T/C (second compound 1 µM, first compound 1 µM) of 39.7%. It also gave a viability, T/C (second compound 3.16 µM, first compound 0.00316 µM) of 75.4%, a viability, T/C (second compound 3.16 µM, first compound 0.01 µM) of 67.2% and a viability, T/C (second compound 3.16 µM, first compound 0.0316 µM) of 54.9%. The viability, T/C (second compound 3.16 µM, first compound 0.1 µM) was 51.9%, the viability, T/C (second compound 3.16 µM, first compound 0.316 µM) was 46% and the viability, T/C (second compound 3.16 µM, first compound 1 µM) was 37.3%. It also gave a viability, T/C (second compound 10 µM, first compound 0.00316 µM) of 65.9%, a viability, T/C (second compound 10 µM, first compound 0.01 µM) of 59% and a viability, T/C (second compound 10 µM, first compound 0.0316 µM) of 40.6%. The viability, T/C (second compound 10 µM, first compound 0.1 µM) was 40.5%, the viability, T/C (second compound 10 µM, first compound 0.316 µM) was 32.2% and the viability, T/C (second compound 10 µM, first compound 1 µM) was 30.5%.
